From ChEMBL document CHEMBL2311287, “Selective inhibition of extracellular thioredoxin by asymmetric disulfides” (J Med Chem, 2013)
Where a chain is given by its changes, count along the chain named. Each block holds one compound with its values, some of them ahead of it. Calls of active or inactive are those of the source. The calls are words filed in the database; no cut-off is given here.

Key:
[1] = system: Transglutaminase 2 (Homo sapiens); test: Inhibition of human recombinant thioredoxin-mediated TG2 activation expressed in T84 cells assessed as blockade of 5-biotinamidopentylamine incorporation at 25 uM after 3 hrs by fluorescence microscopic analysis
Thioredoxin = target: T1, Thioredoxin (Homo sapiens, UniProt P10599); test: Inhibition of human recombinant thioredoxin-mediated TG2 activation expressed in T84 cells assessed as blockade of 5-biotinamidopentylamine incorporation after 3 hrs by streptavidin-HRP/TMB absorbance assay
T1 sequence (P10599 whole entry): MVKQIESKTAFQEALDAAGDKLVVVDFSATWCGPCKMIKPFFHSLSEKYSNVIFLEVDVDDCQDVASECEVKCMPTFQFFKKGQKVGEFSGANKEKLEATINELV

[2] = target: T2, Thioredoxin (Homo sapiens) (UniProt P10599); test: Inhibition of wild type human thioredoxin by insulin turbidity assay; details: concentration not given here
T2 sequence (whole entry): T1 sequence (P10599 whole entry)

[3] = system: T3, Thioredoxin (Homo sapiens), P10599 [W31A]; test: Inhibition of human thioredoxin W31A mutant
T3 sequence (whole entry): T1 sequence (P10599 whole entry) with W31A

- inhibition [1]: Active
Compound: O=C(NC[C@@H]1CC(Br)=NO1)[C@@H]1CCCN1C(=O)OCc1cnc2ccccc2c1

- IC50 (Thioredoxin): 2.11 µM
Compound: CCC(C)SSc1ncc[nH]1 (centres undefined) [PX-12]

- inhibition [2]: 78%
- Ratio [3]: 1.42 µM⁻¹ min⁻¹
Compound: CCC(C)SSc1nc2ccccc2[nH]1 (centres undefined)
